What was measured:
A. viscosus OMZ 105 [1] = assay: microbe, parasite or virus in culture; conditions: Actinomyces viscosus, OMZ105, 4 h, read-out: Inhibition (%) of adhesion to plastic tubes, A. viscosus OMZ 105
S. sanguis OMZ 9 [2] = assay: microbe, parasite or virus in culture; conditions: Streptococcus, OMZ9, 4 h, read-out: Inhibition (%) of adhesion to plastic tubes, S. sanguis OMZ 9
S. mutans OMZ 176 = assay: Inhibition of bacterial adhesion to plastic (polypropylene) tubes, S. mutans; conditions: for inhibition at 1000 µg/mL: Streptococcus mutans, OMZ176, 4 h, read-out: Inhibition (%) of adhesion to plastic tubes, S. mutans OMZ 176; for Inhibition (%) of adhesion to plastic tubes, S. mutans OMZ 176: 1 mg/ml, 4 h
A. viscosus OMZ 105 [3] = tested on: A. viscosus OMZ 105
A. viscosus OMZ 206 = assay: Inhibition of bacterial adhesion to plastic (polypropylene) tubes, A. viscosus OMZ 206; conditions: Actinomyces viscosus, OMZ206, 4 h, read-out: Inhibition (%) of adhesion to plastic tubes, A. viscosus OMZ 206
A. naeslundii ATCC 12104 = conditions: desialylated human erythrocytes (A+); no control of bacterial growth phase; none = no inhibition up to 20 mg/ml
A. viscosus OMZ 105 [4] = conditions: for Inhibition (%) of adhesion to plastic tubes, A. viscosus OMZ 105: 1 mg/ml, 4 h; for Inhibitory effect on adhesion to plastic tubes (in words), A. viscosus OMZ 105: preliminary tests
S. sanguis OMZ 9 [5] = conditions: for Inhibition (%) of adhesion to plastic tubes, S. sanguis OMZ 9: 1 mg/ml, 4 h; for Inhibitory effect on adhesion to plastic tubes (in words), S. sanguis OMZ 9: preliminary tests

Molecule: O=C[C@H](O)[C@@H](O)[C@@H](O)[C@H](O)CO [Galactose]
- inhibition at 1000 µg/mL (A. viscosus OMZ 105 [1]): 12%
- inhibition at 1000 µg/mL (S. sanguis OMZ 9 [2]): 12%
- inhibition at 1000 µg/mL (S. mutans OMZ 176): 4%

Molecule: OC[C@H]1O[C@@H](O[C@H]2[C@H](O)[C@@H](O)C(O)O[C@@H]2CO)[C@H](O)[C@@H](O)[C@H]1O (stereo partly shown) [Lactose]
- inhibition at 1000 µg/mL (A. viscosus OMZ 105 [1]): 14%
- inhibition at 1000 µg/mL (S. sanguis OMZ 9 [2]): 12%
- Minimum concentration resulting in complete inhibition of hemagglutination, expressed in galactoside equivalents/ml (A. viscosus OMZ 105 [3]; A. viscosus OMZ harvested in the exponential phase, desialylated human erythrocytes (A+)): > 10 mg/mL
- Minimum concentration resulting in complete inhibition of hemagglutination, expressed in dry weight/ml (A. viscosus OMZ 105 [3]; A. viscosus OMZ harvested in the exponential phase, desialylated human erythrocytes (A+), none = no inhibition up to 20 mg/ml): none
- Minimum concentration resulting in complete inhibition of hemagglutination, A. viscosus OMZ 105 (A. viscosus OMZ 105 [3]; desialylated human erythrocytes (A+), no control of bacterial growth phase, none = no inhibition up to 20 mg/ml): none
- Inhibition of hemagglutinations governed by type 2 pili (in words) (A. viscosus OMZ 105 [3]; summary of Tables I and II): completely ineffective
- inhibition at 1000 µg/mL (S. mutans OMZ 176): 4%
- inhibition at 1000 µg/mL (A. viscosus OMZ 206): 15%
- Minimum concentration resulting in complete inhibition of hemagglutination, A. naeslundii ATCC 12104 (A. naeslundii ATCC 12104): none

Molecule: COC1OC(CO)C(O)C(O)C1O (stereo not drawn) [Methyl α mannoside]
- Inhibition (%) of adhesion to plastic tubes, S. mutans OMZ 176 (S. mutans OMZ 176): 3%
- Inhibition (%) of adhesion to plastic tubes, A. viscosus OMZ 105 (A. viscosus OMZ 105 [4]): 10%
- Inhibition (%) of adhesion to plastic tubes, S. sanguis OMZ 9 (S. sanguis OMZ 9 [5]): 11%

Molecule: O=C[C@H](O)[C@@H](O)[C@H](O)[C@H](O)CO [glucose]
- Inhibitory effect on adhesion to plastic tubes (in words), A. viscosus OMZ 105 (A. viscosus OMZ 105 [4]): nonactivity
- Inhibitory effect on adhesion to plastic tubes (in words), S. sanguis OMZ 9 (S. sanguis OMZ 9 [5]): nonactivity

Molecule: NCC(=O)O [glycine]
- Inhibitory effect on adhesion to plastic tubes (in words), A. viscosus OMZ 105 (A. viscosus OMZ 105 [4]): nonactivity
- Inhibitory effect on adhesion to plastic tubes (in words), S. sanguis OMZ 9 (S. sanguis OMZ 9 [5]): nonactivity

Molecule: Polyglutamic acid
- Inhibition (%) of adhesion to plastic tubes, S. mutans OMZ 176 (S. mutans OMZ 176): 20%
- Inhibition (%) of adhesion to plastic tubes, A. viscosus OMZ 105 (A. viscosus OMZ 105 [4]): 22%
- Inhibition (%) of adhesion to plastic tubes, S. sanguis OMZ 9 (S. sanguis OMZ 9 [5]): 6%

Molecule: Polylysine
- Inhibition (%) of adhesion to plastic tubes, S. mutans OMZ 176 (S. mutans OMZ 176): 30%
- Inhibition (%) of adhesion to plastic tubes, A. viscosus OMZ 105 (A. viscosus OMZ 105 [4]): 46%
- Inhibition (%) of adhesion to plastic tubes, S. sanguis OMZ 9 (S. sanguis OMZ 9 [5]): 12%
